Tested on: Apteronotus leptorhynchus
Assay: Neuro-behavioral assay: effect on EOD frequency
Assay type: in vivo
Settings: for EOD frequency lower than median baseline frequency immediately after return to isolation tank (range among fish): 2.5% urethane or 0.02% MS-222 immersion until fin and opercular movement ceased; for EOD frequency lower than median baseline frequency immediately after return to isolation tank (range among fish) / EOD frequency lower than median baseline frequency immediately after return to isolation tank (median) / Median EOD frequency change, 30-min interval before vs 15-min interval after start of anesthesia: Median: n=8 fish; for EOD frequency lower than median baseline frequency immediately after return to isolation tank (median): 2.5% urethane or 0.02% MS-222 immersion; for Recovery model parameter a (ratio EOD frequency vs baseline at t=0), estimate / Recovery model parameter b, estimate / Recovery model parameter c, estimate / Recovery model parameter d, estimate: robust nonlinear regression, Equation 1, 2.5% urethane or 0.02% MS-222; for Recovery model (Eq. 3) parameter a: normalized frequency
Source text: For the assay, adult brown ghost knifefish (Apteronotus leptorhynchus; Gymnotiformes, Teleostei), with total lengths of approximately 12-15 cm, are used. The fish are imported from their natural habitat in South and Central America.
At least 1 week before using the assay for the first run, the fish is transferred from a community tank to an isolation tank (50 cm×30 cm×30 cm) equipped with aquarium thermostat heaters and air-driven corner filters. The fish is kept in aquarium water prepared by adding a mixture of inorganic salts (81 mmol/L MgSO4·7H2O; 107 mmol/L KCl; 12 mmol/L NaH2PO4·2H2O; 732 mmol/L CaSO4·2H2O) to deionized water until a water conductivity of approximately 150-300 μS/cm is reached. Water temperature, determined during the experiments every 10 min with a calibrated high-precision (accuracy+0.05° C.) digital thermometer, is kept in the range of 25.0-28.0° C. across all assays. Variation is limited to 1.0° C. in an individual assay. A 12:12 h light:dark photoperiod is maintained with a timer. The fish are fed red mosquito larvae daily, after the assay run on that day has been completed.
In each isolation tank, an opaque cylindrical plastic tube (length: 190 mm; inner diameter: 38 mm; outer diameter: 42 mm) provides shelter and is readily accepted by the fish, particularly during the light phase, when individuals of this nocturnal species spend most of the time in shelter places. A pair of stainless-steel electrodes is mounted on the inside of each tube (see section 4.1.2, ‘EOD recording,’ below).
Differential recording of the fish's EOD is done through the pair of stainless-steel electrodes built into the shelter tube (FIG. 1). […] This allows the fish's EOD to be recorded continuously without interruptions. At the same time, mesh size is chosen such that sustained water flow through the tube is ensured. A strip of stainless steel is placed in the tank to serve as a ground electrode.
The signal is AC amplified (gain: 30×; low-pass filter: none; high-pass filter: 200 Hz) and then digitized at a sampling rate of 50 kHz.
The sampled time-voltage data (ti, vi), i=1, . . . , N, are filtered in subsequent, 1-s-long windows using a bandpass filter with frequency band [0.8, 1.2]×f0, where f0 is the fundamental frequency determined from the power spectrum of the signal within the associated time window.
The filtered time series data (ti, Vi), i=1, . . . , N, are further processed to determine the EOD frequency at a higher time resolution. First, tuple j containing the indices of all instants where the filtered signal changes sign to a positive value is determined:
Then, tuple t^+ of time instances when the signal crosses the time axis upwards is calculated using interpolation:
Here M=|j| denotes the number of elements in j (the number of all crossings). Finally, time-frequency pairs (Tk, fk) are computed as
for k=1, . . . , M−m. Here m=10 is the number of averaged time periods used for EOD frequency calculation.
Since the EOD frequency of A. leptorhynchus is temperature dependent, all measured frequencies are adjusted to a reference temperature (arbitrarily chosen to be 26° C.) so that discharge frequencies at different water temperatures can be compared. This adjustment of a frequency f1 (in Hz) measured at a temperature T1 (in ° C.) to the reference temperature T2=26° C. is calculated as
where f2 is the expected frequency at T2 and Q10=1.56, as determined empirically.
The experimental design is outlined in FIG. 2. To determine the baseline EOD frequency, the fish's EOD was recorded for 30 min. Then, the fish was transferred into a glass beaker containing either 2.5% urethane (Acros Organics, New Jersey, USA) or 0.02% MS-222 (Western Chemical, Washington, USA), each dissolved in water from the fish's isolation tank. As a control, the fish was moved into an identical glass beaker containing aquarium water only. […]

SMILES: CCOC(=O)c1cccc(N)c1 [MS-222, 3-aminobenzoic acid ethyl ester methanesulfonate]
- EOD frequency lower than median baseline frequency immediately after return to isolation tank (range among fish): 129-279 Hz
- EOD frequency lower than median baseline frequency immediately after return to isolation tank (median): 168 Hz
- Recovery model parameter a (ratio EOD frequency vs baseline at t=0), estimate (8 fish): 0.3584 1
- Recovery model parameter b, estimate (8 fish): 0.52 min
- Recovery model parameter c, estimate (8 fish): 1.0024
- Recovery model parameter d, estimate (8 fish): -9.0311e-06 min⁻¹

SMILES: C=CCc1ccc(O)c(OC)c1 [eugenol]
- Maximum EOD frequency drop vs median baseline frequency (median) (60 μL/L eugenol, 5 min, 8 fish): 232 Hz
- Maximum EOD frequency drop vs median baseline frequency (range) (60 μL/L eugenol, 5 min, 8 fish): 184-277 Hz
- Latency until fish started to lower the EOD frequency after transfer into the anesthetic solution (eugenol 30-60 μL/L): 1 to 2 min
- Recovery model (Eq. 3) parameter b (eugenol 30 μL/L): 1.4568 min
- Recovery model (Eq. 3) parameter c (eugenol 30 μL/L): 1.0089
- Recovery model (Eq. 3) parameter d (eugenol 30 μL/L): -3.2299e-05 min⁻¹
- Difference in the largest normalized EOD frequency drops: Median (eugenol 30 μL/L vs. Control): −0.1650
- Median EOD frequency change, 30-min interval before vs 15-min interval after start of anesthesia: Median (eugenol 30 μL/L, 5 min): −48.18 Hz
- Recovery model (Eq. 3) parameter a (eugenol 30 μL/L): 0.7465 1
- Recovery model (Eq. 3) parameter b (eugenol 45 μL/L): 1.4064 min
- Recovery model (Eq. 3) parameter c (eugenol 45 μL/L): 1.0084
- Recovery model (Eq. 3) parameter d (eugenol 45 μL/L): -3.3821e-05 min⁻¹
- Difference in the largest normalized EOD frequency drops: Median (eugenol 45 μL/L vs. 30 μL/L): −0.0715
- Median EOD frequency change, 30-min interval before vs 15-min interval after start of anesthesia: Median (eugenol 45 μL/L, 5 min): −65.54 Hz
- Recovery model (Eq. 3) parameter a (eugenol 45 μL/L): 0.6344 1
- Recovery model (Eq. 3) parameter b (eugenol 60 μL/L): 1.5816 min
- Recovery model (Eq. 3) parameter c (eugenol 60 μL/L): 1.0131
- Recovery model (Eq. 3) parameter d (eugenol 60 μL/L): -6.2321e-05 min⁻¹
- Difference in the largest normalized EOD frequency drops: Median (eugenol 60 μL/L vs. 45 μL/L): −0.0349
- Median EOD frequency change, 30-min interval before vs 15-min interval after start of anesthesia: Median (eugenol 60 μL/L, 5 min): −88.65 Hz
- Recovery model (Eq. 3) parameter a (eugenol 60 μL/L): 0.5649 1

SMILES: CCOC(N)=O [urethane]
- EOD frequency lower than median baseline frequency immediately after return to isolation tank (range among fish): 104-142 Hz
- EOD frequency lower than median baseline frequency immediately after return to isolation tank (median): 133 Hz
- EOD frequency drop during first phase of anesthesia (2.5% urethane, first phase lasting roughly 30 s): approximately 100 Hz
- Recovery model parameter a (ratio EOD frequency vs baseline at t=0), estimate (8 fish): 0.8428 1
- Recovery model parameter b, estimate (8 fish): 21.333 min
- Recovery model parameter c, estimate (8 fish): 1.0228
- Recovery model parameter d, estimate (8 fish): -2.8717e-05 min⁻¹
